Test results published in paper PMC11167047 (Cell Death Discovery, 2024).

Legend:
Test in all cases: kinome screen (33PanQinase)
Format in all cases: biochemical
ACVR2A = target: T1, ACVR2A (Homo sapiens, UniProt P27037)
T1 construct: purchased Reaction Biology Europe GmbH (formerly ProQinase)
Method: (§1) The Kinome Screening was performed by Reaction Biology Europe GmbH (http://reactionbiology.com; Freiburg i. Br., Germany).

AKT1 = target: T2, AKT1 (Homo sapiens, UniProt P31749)
T2 construct: purchased Reaction Biology Europe GmbH (formerly ProQinase)
T2 sequence (P31749 whole entry): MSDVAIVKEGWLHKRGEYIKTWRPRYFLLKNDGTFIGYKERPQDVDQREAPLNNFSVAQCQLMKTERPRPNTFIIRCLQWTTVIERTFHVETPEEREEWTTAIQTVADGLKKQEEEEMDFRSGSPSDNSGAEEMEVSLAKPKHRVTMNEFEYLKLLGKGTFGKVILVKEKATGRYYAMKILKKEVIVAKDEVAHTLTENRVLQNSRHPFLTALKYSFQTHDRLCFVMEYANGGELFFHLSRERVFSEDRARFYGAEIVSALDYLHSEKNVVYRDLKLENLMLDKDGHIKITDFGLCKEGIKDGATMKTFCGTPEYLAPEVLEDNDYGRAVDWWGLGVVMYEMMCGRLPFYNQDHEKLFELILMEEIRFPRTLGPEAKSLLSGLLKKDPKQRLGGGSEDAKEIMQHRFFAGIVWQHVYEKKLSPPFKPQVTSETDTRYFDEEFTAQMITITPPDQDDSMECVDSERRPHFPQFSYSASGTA
Method: as §1

BLK = target: T3, BLK (Homo sapiens, UniProt P51451)
T3 construct: purchased Reaction Biology Europe GmbH (formerly ProQinase)
T3 sequence (P51451 whole entry): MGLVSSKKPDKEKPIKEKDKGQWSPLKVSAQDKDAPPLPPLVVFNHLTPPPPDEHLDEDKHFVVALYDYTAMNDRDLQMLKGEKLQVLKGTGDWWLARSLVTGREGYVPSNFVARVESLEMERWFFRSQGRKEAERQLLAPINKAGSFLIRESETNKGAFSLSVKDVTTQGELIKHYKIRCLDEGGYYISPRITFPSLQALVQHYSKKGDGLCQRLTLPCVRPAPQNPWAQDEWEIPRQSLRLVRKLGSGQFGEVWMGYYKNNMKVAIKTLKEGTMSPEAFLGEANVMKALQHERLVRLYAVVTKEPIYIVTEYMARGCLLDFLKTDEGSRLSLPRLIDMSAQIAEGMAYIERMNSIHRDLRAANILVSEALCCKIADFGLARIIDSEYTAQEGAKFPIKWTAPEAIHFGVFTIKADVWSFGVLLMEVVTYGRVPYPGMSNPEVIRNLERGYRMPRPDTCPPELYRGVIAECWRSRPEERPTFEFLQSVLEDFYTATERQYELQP
Method: as §1

CDK3/CycC = target: T4, CDK3/CycC (Homo sapiens, UniProt Q00526)
T4 construct: purchased Reaction Biology Europe GmbH (formerly ProQinase)
T4 sequence (Q00526 whole entry): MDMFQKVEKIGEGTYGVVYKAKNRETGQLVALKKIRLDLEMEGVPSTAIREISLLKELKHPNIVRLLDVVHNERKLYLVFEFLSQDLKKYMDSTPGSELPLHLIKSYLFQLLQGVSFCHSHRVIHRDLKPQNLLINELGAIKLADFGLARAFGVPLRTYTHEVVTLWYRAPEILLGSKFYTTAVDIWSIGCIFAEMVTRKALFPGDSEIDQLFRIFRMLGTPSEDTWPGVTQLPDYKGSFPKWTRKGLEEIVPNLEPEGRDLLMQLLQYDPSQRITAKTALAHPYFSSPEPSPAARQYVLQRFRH
T4 sequence (P24863 whole entry partner): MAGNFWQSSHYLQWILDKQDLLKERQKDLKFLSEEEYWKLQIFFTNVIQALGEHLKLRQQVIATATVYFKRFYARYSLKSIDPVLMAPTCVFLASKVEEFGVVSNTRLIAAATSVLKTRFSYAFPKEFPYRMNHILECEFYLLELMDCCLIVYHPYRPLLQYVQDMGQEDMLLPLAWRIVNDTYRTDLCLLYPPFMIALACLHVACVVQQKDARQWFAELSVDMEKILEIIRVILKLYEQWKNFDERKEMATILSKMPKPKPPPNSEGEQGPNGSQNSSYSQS
Method: as §1

CK2α1 = target: T5, CK2α1 (Homo sapiens, UniProt P68400)
T5 construct: purchased Reaction Biology Europe GmbH (formerly ProQinase)
T5 sequence (P68400 whole entry): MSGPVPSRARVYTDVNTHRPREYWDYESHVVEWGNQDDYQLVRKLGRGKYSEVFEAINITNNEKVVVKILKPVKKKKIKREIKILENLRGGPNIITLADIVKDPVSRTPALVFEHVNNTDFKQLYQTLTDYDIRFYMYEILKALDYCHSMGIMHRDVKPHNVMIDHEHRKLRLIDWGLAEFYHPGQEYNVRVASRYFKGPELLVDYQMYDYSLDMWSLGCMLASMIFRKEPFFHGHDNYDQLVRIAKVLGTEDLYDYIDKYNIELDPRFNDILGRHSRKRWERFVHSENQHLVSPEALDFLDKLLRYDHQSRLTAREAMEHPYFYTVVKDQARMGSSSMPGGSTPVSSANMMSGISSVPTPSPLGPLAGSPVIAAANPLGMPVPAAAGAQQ
Method: as §1

ERBB2 = target: T6, ERBB2 (Homo sapiens, UniProt P04626)
T6 construct: purchased Reaction Biology Europe GmbH (formerly ProQinase)
Method: as §1

ERK7 = target: T7, ERK7 (Homo sapiens, UniProt Q8TD08)
T7 construct: purchased Reaction Biology Europe GmbH (formerly ProQinase)
T7 sequence (Q8TD08 1-544): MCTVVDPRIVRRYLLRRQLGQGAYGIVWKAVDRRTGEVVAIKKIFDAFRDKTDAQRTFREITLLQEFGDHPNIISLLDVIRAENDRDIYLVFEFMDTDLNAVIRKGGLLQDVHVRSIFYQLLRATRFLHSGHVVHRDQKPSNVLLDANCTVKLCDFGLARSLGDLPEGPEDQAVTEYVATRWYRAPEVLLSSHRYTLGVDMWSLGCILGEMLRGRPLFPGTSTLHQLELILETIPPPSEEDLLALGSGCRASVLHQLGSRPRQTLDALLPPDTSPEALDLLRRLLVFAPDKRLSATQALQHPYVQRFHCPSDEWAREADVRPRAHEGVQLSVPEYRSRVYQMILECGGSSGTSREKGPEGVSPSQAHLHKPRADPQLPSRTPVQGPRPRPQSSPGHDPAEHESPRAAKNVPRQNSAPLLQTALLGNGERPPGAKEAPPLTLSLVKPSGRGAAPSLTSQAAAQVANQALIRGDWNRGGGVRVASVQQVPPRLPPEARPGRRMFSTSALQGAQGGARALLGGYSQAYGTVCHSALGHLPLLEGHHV
Method: as §1

KIT = target: T8, KIT (Homo sapiens, UniProt P10721)
T8 construct: purchased Reaction Biology Europe GmbH (formerly ProQinase)
T8 sequence (P10721 26-976): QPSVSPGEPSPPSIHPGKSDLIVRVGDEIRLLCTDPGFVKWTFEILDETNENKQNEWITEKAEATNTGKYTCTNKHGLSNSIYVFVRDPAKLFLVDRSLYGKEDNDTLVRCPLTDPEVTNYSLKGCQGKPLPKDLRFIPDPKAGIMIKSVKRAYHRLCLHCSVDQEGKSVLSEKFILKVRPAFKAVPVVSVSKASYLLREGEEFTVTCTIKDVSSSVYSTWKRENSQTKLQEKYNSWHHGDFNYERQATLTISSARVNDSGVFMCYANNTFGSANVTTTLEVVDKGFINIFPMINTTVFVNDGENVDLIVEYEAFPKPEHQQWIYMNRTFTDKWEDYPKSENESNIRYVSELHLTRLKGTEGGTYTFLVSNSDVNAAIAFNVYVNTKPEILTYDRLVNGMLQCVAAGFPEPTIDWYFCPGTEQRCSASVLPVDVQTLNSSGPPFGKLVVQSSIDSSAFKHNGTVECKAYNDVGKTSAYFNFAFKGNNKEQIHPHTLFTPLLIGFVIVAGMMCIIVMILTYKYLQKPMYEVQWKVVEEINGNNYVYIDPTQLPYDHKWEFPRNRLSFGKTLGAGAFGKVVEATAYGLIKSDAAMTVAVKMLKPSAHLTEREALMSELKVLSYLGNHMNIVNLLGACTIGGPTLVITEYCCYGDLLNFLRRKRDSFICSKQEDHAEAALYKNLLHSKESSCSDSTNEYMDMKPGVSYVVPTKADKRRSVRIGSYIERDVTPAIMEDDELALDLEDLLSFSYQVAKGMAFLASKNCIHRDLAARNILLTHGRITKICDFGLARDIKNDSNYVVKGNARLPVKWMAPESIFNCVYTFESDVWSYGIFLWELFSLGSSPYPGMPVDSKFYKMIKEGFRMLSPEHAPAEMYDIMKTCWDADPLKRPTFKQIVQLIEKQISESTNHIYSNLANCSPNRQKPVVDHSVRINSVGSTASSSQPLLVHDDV
Method: as §1

MET = target: T9, MET (Homo sapiens, UniProt P08581)
T9 construct: purchased Reaction Biology Europe GmbH (formerly ProQinase)
T9 sequence (P08581 25-1390): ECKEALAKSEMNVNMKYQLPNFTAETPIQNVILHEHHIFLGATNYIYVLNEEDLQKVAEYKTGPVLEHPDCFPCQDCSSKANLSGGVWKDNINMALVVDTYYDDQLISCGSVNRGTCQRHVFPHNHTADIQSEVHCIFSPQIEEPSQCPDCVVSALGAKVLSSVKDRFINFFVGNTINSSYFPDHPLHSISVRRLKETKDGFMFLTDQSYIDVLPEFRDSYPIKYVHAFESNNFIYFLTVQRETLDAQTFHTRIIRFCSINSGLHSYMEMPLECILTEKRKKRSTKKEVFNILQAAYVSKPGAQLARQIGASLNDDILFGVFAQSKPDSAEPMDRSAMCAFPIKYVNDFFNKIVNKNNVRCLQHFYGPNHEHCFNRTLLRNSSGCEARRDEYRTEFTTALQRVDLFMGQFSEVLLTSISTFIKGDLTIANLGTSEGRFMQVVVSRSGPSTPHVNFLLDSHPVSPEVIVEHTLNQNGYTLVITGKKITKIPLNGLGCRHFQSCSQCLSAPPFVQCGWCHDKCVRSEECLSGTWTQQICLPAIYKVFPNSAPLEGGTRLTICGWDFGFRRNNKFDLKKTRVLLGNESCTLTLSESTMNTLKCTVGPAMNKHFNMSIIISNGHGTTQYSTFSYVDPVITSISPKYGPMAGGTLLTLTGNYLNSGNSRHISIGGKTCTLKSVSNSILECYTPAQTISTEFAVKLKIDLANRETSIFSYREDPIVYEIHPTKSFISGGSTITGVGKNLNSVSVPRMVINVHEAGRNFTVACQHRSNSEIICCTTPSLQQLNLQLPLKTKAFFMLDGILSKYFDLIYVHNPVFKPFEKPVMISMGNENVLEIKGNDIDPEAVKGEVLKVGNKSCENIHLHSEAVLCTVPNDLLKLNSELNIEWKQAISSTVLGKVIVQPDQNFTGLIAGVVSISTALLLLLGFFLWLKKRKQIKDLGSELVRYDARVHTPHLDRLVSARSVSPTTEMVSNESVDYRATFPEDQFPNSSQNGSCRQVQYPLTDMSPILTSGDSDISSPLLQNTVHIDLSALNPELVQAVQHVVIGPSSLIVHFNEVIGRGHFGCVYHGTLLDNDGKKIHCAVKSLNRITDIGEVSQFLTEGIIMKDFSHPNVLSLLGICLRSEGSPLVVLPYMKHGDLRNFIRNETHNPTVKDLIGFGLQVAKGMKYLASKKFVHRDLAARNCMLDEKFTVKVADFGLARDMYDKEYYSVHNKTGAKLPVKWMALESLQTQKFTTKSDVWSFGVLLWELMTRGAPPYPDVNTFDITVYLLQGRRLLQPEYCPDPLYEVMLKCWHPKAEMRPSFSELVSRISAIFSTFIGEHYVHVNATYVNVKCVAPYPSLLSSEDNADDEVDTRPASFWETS
Method: as §1

NLK = target: T10, NLK (Homo sapiens, UniProt Q9UBE8)
T10 construct: purchased Reaction Biology Europe GmbH (formerly ProQinase)
T10 sequence (Q9UBE8 1-527): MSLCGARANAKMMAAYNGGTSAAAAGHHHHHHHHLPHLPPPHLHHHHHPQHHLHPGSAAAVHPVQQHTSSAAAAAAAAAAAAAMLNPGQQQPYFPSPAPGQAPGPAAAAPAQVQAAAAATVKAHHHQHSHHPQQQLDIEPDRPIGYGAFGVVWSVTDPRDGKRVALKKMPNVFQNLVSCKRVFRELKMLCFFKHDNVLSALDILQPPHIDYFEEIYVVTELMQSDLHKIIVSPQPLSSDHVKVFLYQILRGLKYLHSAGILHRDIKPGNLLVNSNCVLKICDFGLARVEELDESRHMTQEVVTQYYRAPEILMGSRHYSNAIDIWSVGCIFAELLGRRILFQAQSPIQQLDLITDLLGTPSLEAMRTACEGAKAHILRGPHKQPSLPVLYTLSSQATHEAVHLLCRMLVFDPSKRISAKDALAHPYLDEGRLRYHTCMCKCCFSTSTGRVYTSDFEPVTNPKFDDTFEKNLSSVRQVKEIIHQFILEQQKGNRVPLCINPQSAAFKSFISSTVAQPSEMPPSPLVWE
Method: as §1

TSSK1 = target: T11, TSSK1 (Homo sapiens, UniProt Q9BXA7)
T11 construct: purchased Reaction Biology Europe GmbH (formerly ProQinase)
T11 sequence (Q9BXA7 1-367): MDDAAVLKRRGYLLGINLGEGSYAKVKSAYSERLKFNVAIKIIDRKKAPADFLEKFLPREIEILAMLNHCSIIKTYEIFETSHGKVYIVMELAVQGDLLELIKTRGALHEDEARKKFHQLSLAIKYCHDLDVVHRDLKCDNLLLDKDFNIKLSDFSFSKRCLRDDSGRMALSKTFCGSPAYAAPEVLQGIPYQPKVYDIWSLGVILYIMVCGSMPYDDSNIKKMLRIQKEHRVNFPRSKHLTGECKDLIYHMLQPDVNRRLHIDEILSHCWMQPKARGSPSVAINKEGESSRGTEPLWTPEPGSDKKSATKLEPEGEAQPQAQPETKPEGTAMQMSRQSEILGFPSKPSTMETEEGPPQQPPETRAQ
Method: as §1

T1 sequence (P27037 20-513): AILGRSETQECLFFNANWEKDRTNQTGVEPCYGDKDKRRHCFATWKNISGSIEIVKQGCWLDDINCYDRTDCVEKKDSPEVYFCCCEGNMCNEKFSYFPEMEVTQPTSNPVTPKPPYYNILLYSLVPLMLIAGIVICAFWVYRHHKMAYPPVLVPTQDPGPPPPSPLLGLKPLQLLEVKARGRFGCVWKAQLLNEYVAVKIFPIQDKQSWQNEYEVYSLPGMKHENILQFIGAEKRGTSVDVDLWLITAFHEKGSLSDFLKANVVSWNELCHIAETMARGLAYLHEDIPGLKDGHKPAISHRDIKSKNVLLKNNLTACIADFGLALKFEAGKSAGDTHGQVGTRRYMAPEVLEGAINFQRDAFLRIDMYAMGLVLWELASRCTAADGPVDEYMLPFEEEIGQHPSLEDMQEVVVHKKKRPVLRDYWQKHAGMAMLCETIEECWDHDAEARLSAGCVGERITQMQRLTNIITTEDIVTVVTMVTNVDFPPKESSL

Compound | residual kinase activity (ACVR2A; 0.3 µM) | residual kinase activity (AKT1; 0.3 µM) | residual kinase activity (BLK; 0.3 µM) | residual kinase activity (CDK3/CycC; 0.3 µM) | residual kinase activity (CK2α1; 0.3 µM) | residual kinase activity (ERBB2; 0.3 µM) | residual kinase activity (ERK7; 0.3 µM) | residual kinase activity (KIT; 0.3 µM) | residual kinase activity (MET; 0.3 µM) | residual kinase activity (NLK; 0.3 µM) | residual kinase activity (TSSK1; 0.3 µM) | further results
COc1ccnc2[nH]cc(-c3cc(N)nc(N)c3)c12 [meriolin 16] | 103 % of control | 70 % of control | 95 % of control | 20 % of control | 104 % of control | 102 % of control | 59 % of control | 96 % of control | 106 % of control | 81 % of control | 83 % of control | residual kinase activity (ACVR2A; 0.03 µM): 103 % of control; residual kinase activity (AKT1; 0.03 µM): 96 % of control; residual kinase activity (BLK; 0.03 µM): 126 % of control; residual kinase activity (CDK3/CycC; 0.03 µM): 71 % of control; residual kinase activity (CK2α1; 0.03 µM): 106 % of control; residual kinase activity (ERBB2; 0.03 µM): 102 % of control; residual kinase activity (ERK7; 0.03 µM): 86 % of control; residual kinase activity (KIT; 0.03 µM): 70 % of control; residual kinase activity (MET; 0.03 µM): 110 % of control; residual kinase activity (NLK; 0.03 µM): 96 % of control; residual kinase activity (TSSK1; 0.03 µM): 109 % of control
c1ccc(CNc2cc(-c3c[nH]c4ncccc34)ccn2)cc1 [meriolin 36] | 94 % of control | 89 % of control | 88 % of control | 9 % of control | 99 % of control | 90 % of control | 7 % of control | 89 % of control | 99 % of control | 78 % of control | 50 % of control | residual kinase activity (ACVR2A; 3 µM): 47 % of control; residual kinase activity (AKT1; 3 µM): 41 % of control; residual kinase activity (BLK; 3 µM): 13 % of control; residual kinase activity (CDK3/CycC; 3 µM): 3 % of control; residual kinase activity (CK2α1; 3 µM): 53 % of control; residual kinase activity (ERBB2; 3 µM): 44 % of control; residual kinase activity (ERK7; 3 µM): -3 % of control; residual kinase activity (KIT; 3 µM): 46 % of control; residual kinase activity (MET; 3 µM): 48 % of control; residual kinase activity (NLK; 3 µM): 29 % of control; residual kinase activity (TSSK1; 3 µM): 15 % of control
